Measurements reported in patent US8846669B2, “Oxazolidinone derivative and medical composition containing same” (Legochem Biosciences, Inc., priority 2011, dated 2014).
Converted amounts (≈) assume the structure as drawn. Like-named read-outs stand apart in the source and are kept apart here.

What was measured:
Assay in all cases: In vitro antibacterial activity, broth microdilution MIC90
Assay type in all cases: cell-based
Enterococcus faecalis = details: Enterococcus faecalis
Procedure: (§1) MIC90 was measured by broth microdilution method based on CLSI standards [reference: Clinical and Laboratory Standards Institute Document. (2000) Methods for Dilution Antimicrobial Susceptibility Test for Bacteria that Grow Aerobically-Fifth Edition: M7-A5. CLSI, Villanova, Pa.].
(§2) Activities of 12 strains including Staphylococcus aureus, Methicillin Resistant Staphylococcus aureus, Staphylococcus epidermidis, Methicillin Resistant Staphylococcus epidermidis, Enterococcus faecalis, Vancomycin Resistant Enterococcus faecalis, Linezolid and Vancomycin Resistant Enterococcus faecalis, Enterococcus faecium, Vancomycin Resistant Enterococcus faecium, Linezolid and Vancomycin Resistant Enterococcus faecium, and Moraxella catarrhalis, were measured, and results are shown in Table 1 below.
(§3) The final concentration of test material in the antibacterial test was from 0.063 μg/mL (minimum) to 128 μg/mL (maximum), and the final concentration of DMSO used as an excipient was 2.5% (V/V). Linezolid represented by Formula B below (manufactured by Pfizer) was used as a control and bacterial activity thereof was compared with those of the test materials.

Enterococcus faecium = details: Enterococcus faecium
Procedure: as §1, §2, §3

[1] = tested on: Linezolid and Vancomycin Resistant Enterococcus faecalis; details: Enterococcus faecalis
Procedure: as §1, §2, §3

[2] = tested on: Linezolid and Vancomycin Resistant Enterococcus faecium (strain 10); details: Enterococcus faecium
Procedure: as §1, §2, §3

[3] = tested on: Linezolid and Vancomycin Resistant Enterococcus faecium (strain 11); details: Enterococcus faecium
Procedure: as §1, §2, §3

[4] = tested on: Methicillin Resistant Staphylococcus aureus; details: Staphylococcus aureus
Procedure: as §1, §2, §3

[5] = tested on: Methicillin Resistant Staphylococcus epidermidis; details: Staphylococcus epidermidis
Procedure: as §1, §2, §3

Moraxella catarrhalis = details: Moraxella catarrhalis
Procedure: as §1, §2, §3

Staphylococcus aureus = details: Staphylococcus aureus
Procedure: as §1, §2, §3

[6] = tested on: Staphylococcus epidermidis; details: Staphylococcus epidermidis
Procedure: as §1, §2, §3

[7] = tested on: Vancomycin Resistant Enterococcus faecalis; details: Enterococcus faecalis
Procedure: as §1, §2, §3

[8] = tested on: Vancomycin Resistant Enterococcus faecium; details: Enterococcus faecium
Procedure: as §1, §2, §3

Structure (SMILES)	MIC90 (Enterococcus faecalis) [µg/mL]	MIC90 (Enterococcus faecium) [µg/mL]	MIC90 [1] [µg/mL]	MIC90 [2] [µg/mL]	MIC90 [3] [µg/mL]	MIC90 [4] [µg/mL]	MIC90 [5] [µg/mL]	MIC90 (Moraxella catarrhalis) [µg/mL]	MIC90 (Staphylococcus aureus) [µg/mL]	MIC90 [6] [µg/mL]	MIC90 [7] [µg/mL]	MIC90 [8] [µg/mL]	other results
CC(=O)NC[C@H]1CN(c2ccc(-c3ccc(N4C=NN(C(=O)C5COC(C)(C)O5)CC4)nc3)c(F)c2)C(=O)O1 (stereo partly drawn) [Compound 20]	2 (≈ 3.7 µM)	2 (≈ 3.7 µM)	8 (≈ 14.8 µM)	8 (≈ 14.8 µM)	8 (≈ 14.8 µM)	8 (≈ 14.8 µM)	4 (≈ 7.4 µM)	8 (≈ 14.8 µM)	2 (≈ 3.7 µM)	4 (≈ 7.4 µM)	2 (≈ 3.7 µM)	2 (≈ 3.7 µM)	–
CC(=O)NC[C@H]1CN(c2ccc(-c3ccc(N4C=NN(C(=O)C(O)CO)CC4)nc3)c(F)c2)C(=O)O1 (stereo partly drawn) [Compound 21]	–	–	–	–	–	–	–	–	–	–	–	–	MIC90 (Enterococcus faecalis; strain 5, E. faecalis, read-out: MIC90): 1 µg/mL (≈ 2 µM); MIC90 (Enterococcus faecium; strain 8, E. faecium, read-out: MIC90): 0.5 µg/mL (≈ 0.999 µM); MIC90 ([1]; strain 7, E. faecalis VanA LR, read-out: MIC90): 2 µg/mL (≈ 4 µM); MIC90 ([2]; strain 10, E. faecium VanA LR, read-out: MIC90): 2 µg/mL (≈ 4 µM); MIC90 ([3]; strain 11, E. faecium VanA LR, read-out: MIC90): 4 µg/mL (≈ 7.99 µM); MIC90 ([4]; strain 2, S. aureus MR, read-out: MIC90): 1 µg/mL (≈ 2 µM); MIC90 ([5]; strain 4, S. epidermidis MR, read-out: MIC90): 1 µg/mL (≈ 2 µM); MIC90 (Moraxella catarrhalis; strain 12, M. catarrhalis, read-out: MIC90): 4 µg/mL (≈ 7.99 µM); MIC90 (Staphylococcus aureus; strain 1, S. aureus, read-out: MIC90): 0.25 µg/mL (≈ 0.5 µM); MIC90 ([6]; strain 3, S. epidermidis, read-out: MIC90): 0.5 µg/mL (≈ 0.999 µM); MIC90 ([7]; strain 6, E. faecalis VanA, read-out: MIC90): 1 µg/mL (≈ 2 µM); MIC90 ([8]; strain 9, E. faecium VanA, read-out: MIC90): 0.5 µg/mL (≈ 0.999 µM)
COC(=O)NC[C@H]1CN(c2ccc(-c3ccc(N4C=NN(C)CC4)nc3)c(F)c2)C(=O)O1 [Compound 24]	1 (≈ 2.26 µM)	0.5 (≈ 1.13 µM)	4 (≈ 9.04 µM)	4 (≈ 9.04 µM)	8 (≈ 18.1 µM)	1 (≈ 2.26 µM)	2 (≈ 4.52 µM)	4 (≈ 9.04 µM)	0.5 (≈ 1.13 µM)	0.5 (≈ 1.13 µM)	1 (≈ 2.26 µM)	0.5 (≈ 1.13 µM)	–
COC(=O)NC[C@H]1CN(c2ccc(-c3ccc(N4C=NN(C(=O)CO)CC4)nc3)c(F)c2)C(=O)O1 [Compound 25]	0.5 (≈ 1.03 µM)	0.25 (≈ 0.514 µM)	4 (≈ 8.22 µM)	4 (≈ 8.22 µM)	2 (≈ 4.11 µM)	0.5 (≈ 1.03 µM)	1 (≈ 2.06 µM)	4 (≈ 8.22 µM)	0.063 (≈ 0.13 µM)	0.25 (≈ 0.514 µM)	0.5 (≈ 1.03 µM)	0.5 (≈ 1.03 µM)	–
COC(=O)NC[C@H]1CN(c2ccc(-c3ccc(N4C=NN(C(N)=O)CC4)nc3)c(F)c2)C(=O)O1 [Compound 26]	0.5 (≈ 1.06 µM)	0.25 (≈ 0.53 µM)	4 (≈ 8.48 µM)	4 (≈ 8.48 µM)	2 (≈ 4.24 µM)	1 (≈ 2.12 µM)	1 (≈ 2.12 µM)	4 (≈ 8.48 µM)	0.25 (≈ 0.53 µM)	0.5 (≈ 1.06 µM)	0.5 (≈ 1.06 µM)	0.5 (≈ 1.06 µM)	–
CNC(=O)N1CCN(c2ccc(-c3ccc(N4C[C@H](CNC(=O)OC)OC4=O)cc3F)cn2)C=N1 [Compound 27]	0.5 (≈ 1.03 µM)	0.25 (≈ 0.515 µM)	4 (≈ 8.24 µM)	2 (≈ 4.12 µM)	2 (≈ 4.12 µM)	2 (≈ 4.12 µM)	2 (≈ 4.12 µM)	4 (≈ 8.24 µM)	0.5 (≈ 1.03 µM)	1 (≈ 2.06 µM)	0.5 (≈ 1.03 µM)	0.5 (≈ 1.03 µM)	–
CCN1CCN(c2ccc(-c3ccc(N4C[C@H](CO)OC4=O)cc3F)cn2)C=N1 [Compound 29]	16 (≈ 40.1 µM)	8 (≈ 20 µM)	64 (≈ 160 µM)	64 (≈ 160 µM)	64 (≈ 160 µM)	8 (≈ 20 µM)	8 (≈ 20 µM)	32 (≈ 80.1 µM)	8 (≈ 20 µM)	4 (≈ 10 µM)	16 (≈ 40.1 µM)	8 (≈ 20 µM)	–
O=C1O[C@@H](Cn2ccnn2)CN1c1ccc(-c2ccc(N3C=NNCC3)nc2)c(F)c1 [Compound 30]	0.5 (≈ 1.18 µM)	0.25 (≈ 0.592 µM)	4 (≈ 9.47 µM)	2 (≈ 4.73 µM)	2 (≈ 4.73 µM)	1 (≈ 2.37 µM)	2 (≈ 4.73 µM)	4 (≈ 9.47 µM)	0.25 (≈ 0.592 µM)	0.5 (≈ 1.18 µM)	1 (≈ 2.37 µM)	0.5 (≈ 1.18 µM)	–
CN1CCN(c2ccc(-c3ccc(N4C[C@H](Cn5ccnn5)OC4=O)cc3F)cn2)C=N1 [Compound 31]	0.5 (≈ 1.15 µM)	0.25 (≈ 0.573 µM)	2 (≈ 4.58 µM)	1 (≈ 2.29 µM)	2 (≈ 4.58 µM)	1 (≈ 2.29 µM)	1 (≈ 2.29 µM)	2 (≈ 4.58 µM)	0.25 (≈ 0.573 µM)	0.25 (≈ 0.573 µM)	0.5 (≈ 1.15 µM)	0.25 (≈ 0.573 µM)	–
